Results on five molecules are retold here after patent US20090076006A1, “HSP90 INHIBITORS CONTAINING A ZINC BINDING MOIETY” (priority 2007, published 2009).

In data set [1] the test system is HDAC (HeLa nuclear extract). The data set is described as follows: HDAC fluorimetric assay (inhibition of HDAC enzymatic activity). The format is biochemical. The conditions noted are these: HDAC fluorimetric assay kit. How it is done: (c) An In Vitro Assay which Determines the Ability of a Test Compound to Inhibit HDAC Enzymatic Activity.
HDAC inhibitors were screened using an HDAC fluorimetric assay kit (AK-500, Biomol, Plymouth Meeting, Pa.). Test compounds were dissolved in dimethylsulphoxide (DMSO) to give a 20 mM working stock concentration. Fluorescence was measured on a WALLAC Victor 2 plate reader and reported as relative fluorescence units (RFU). Data were plotted using GraphPad Prism (v4.0a) and IC50's calculated using a sigmoidal dose response curve fitting algorithm. Each assay was setup as follows: Defrosted all kit components and kept on ice until use. Diluted HeLa nuclear extract 1:29 in Assay Buffer (50 mM Tris/Cl, pH 8.0, 137 mM NaCl, 2.7 mM KCl, 1 mM MgCl2). Prepared dilutions of Trichostatin A (TSA, positive control) and tested compounds in assay buffer (5× of final concentration). Diluted Fluor de Lys™ Substrate in assay buffer to 100 uM (50 fold=2× final). Diluted Fluor de Lys™ developer concentrate 20-fold (e.g. 50 μl plus 950 μl Assay Buffer) in cold assay buffer. Second, diluted the 0.2 mM Trichostatin A 100-fold in the 1× Developer (e.g. 10 μl in 1 ml; final Trichostatin A concentration in the 1× Developer=2 μM; final concentration after addition to HDAC/Substrate reaction=1 μM). Added Assay buffer, diluted trichostatin A or test inhibitor to appropriate wells of the microtiter plate. Added diluted HeLa extract or other HDAC sample to all wells except for negative controls. Allowed diluted Fluor de Lys™ Substrate and the samples in the microtiter plate to equilibrate to assay temperature (e.g. 25 or 37° C. Initiated HDAC reactions by adding diluted substrate (25 μl) to each well and mixing thoroughly. Allowed HDAC reactions to proceed for 1 hour and then stopped them by addition of Fluor de Lys™ Developer (50 μl). Incubated plate at room temperature (25° C.) for 10-15 min. Read samples in a microtiter-plate reading fluorimeter capable of excitation at a wavelength in the range 350-380 nm and detection of emitted light in the range 440-460 nm.

Data set [2] deals with T1, HSP90 (Homo sapiens, UniProt P07900).
T1 construct: purchased Assay Design SPP-776F
The experiment in a line: HSP90 assay (chaperone luciferase refolding / competition binding fluorescence polarization). The following applies: Table B does not say which of the two described. How it is done:
(a) An In Vitro Assay which Determines the Ability of a Test Compound to Inhibit Hsp90 Chaperone Activity.
The Hsp90 chaperone assay was performed to measure the ability of HSP90 protein to refold the heat-denatured luciferase protein. HSP90 was first incubated with different concentrations of test compounds in denaturation buffer (25 mM Tris, pH7.5, 8 mM MgSO4, 0.01% bovine gamma globulin and 10% glycerol) at room temperature for 30 min. Luciferase protein was added to denaturation mix and incubated at 50° C. for 8 min. The final concentration of HSP90 and luciferase in denaturation mixture were 0.375 μM and 0.125 μM respectively. A 5 μl sample of the denatured mix was diluted into 25 μl of renaturation buffer (25 mM Tris, pH7.5, 8 mM MgSO4, 0.01% bovine gamma globulin and 10% glycerol, 0.5 mM ATP, 2 mM DTT, 5 mM KCl, 0.3 μM HSP70 and 0.15 μM HSP40). The renaturation reaction was incubated at room temperature for 150 min, followed by dilution of 10 μl of the renatured sample into 90 μl of luciferin reagent (Luclite, PerkinElmer Life Science). The mixture was incubated at dark for 5 min before reading the luminescence signal on a TopCount plate reader (PerkinElmer Life Science).
(b) HSP90 Competition Binding (Fluorescence Polarization) Assay.
A fluorescein isothiocyanate (FITC) labeled GM was purchase from InvivoGen (ant-fgl-1). The interaction between HSP90 and labeled GM forms the basis for the fluorescence polarization assay. A free and fast-tumbling FITC labeled GM emits random light with respect to the plane of polarization plane of excited light, resulting in a lower polarization degree (mP) value. When GM is bound to HSP90, the complex tumble slower and the emitted light is polarized, resulting in a higher mP value. This competition binding assay was performed in 96-well plate and with each assay contained 10 and 50 nM of labeled GM and purified HSP90 protein (Assay Design, SPP-776F) respectively. The assay buffer contained 20 mM HEPES (pH 7.3), 50 mM KCl, 1 mM DTT, 50 mM MgCl2, 20 mM Na2MoO4, 0.01% NP40 with 0.1 mg/ml bovine gamma-globulin. Compounds are diluted in DMSO and added to the final assay before labeled GM with concentration range from 20 uM to 2 nM. mP value was determined by BioTek Synergy II with background subtraction after 24 hours of incubation at 4° C.
Background: In fluorescence polarisation assays a small probe gives low polarisation when free and higher when bound to something large.

pIC50: −log10 of the molar value. Bounds are passed on as bounds.

Usually melting point stands for the temperature of the solid-liquid transition. What is called pIC50 is −log10 of the IC50, conventionally taken in molar units. The molecule `COc1ccc(-c2c(C(=O)NCC3CCN(c4ncc(C(=O)NO)cn4)CC3)noc2-c2cc(Cl)c(O)cc2O)cc1` [Compound 13, 5-(5-Chloro-2,4-dihydroxyphenyl)-N-((1-(5-(hydroxycarbamoyl)pyrimidin-2-yl)piperidin-4-yl)methyl)-4-(4-methoxyphenyl)isoxazole-3-carboxamide] showed a melting point of 148 to 151 °C. The pIC50 in data set [1] is ≥ 7.00. Also, the pIC50 in data set [2] was 6.00 to 7.00.

The molecule `CCNC(=O)c1noc(-c2cc(C(C)C)c(O)cc2O)c1-c1ccc(CN(C)CCCCCCC(=O)NO)cc1` [Compound 24, 5-(2,4-Dihydroxy-5-isopropylphenyl)-N-ethyl-4-(4-(((7-(hydroxyamino)-7-oxoheptyl)(methyl)amino)methyl)phenyl)isoxazole-3-carboxamide] displayed a melting point of 118 to 119 °C. The molecule further showed a pIC50 in data set [1] of 6.00 to 7.00. The pIC50 in data set [2] was ≥ 7.00.

In turn, `CC(C)c1cc(-c2onc(C(=O)NCCCCCC(=O)NO)c2-c2ccc(CN3CCOCC3)cc2)c(O)cc1O` [Compound 27, 5-(2,4-Dihydroxy-5-isopropylphenyl)-N-(6-(hydroxyamino)-6-oxohexyl)-4-(4-(morpholinomethyl)phenyl)isoxazole-3-carboxamide] displayed a melting point of 164 to 166 °C. This molecule had a pIC50 in data set [1] of 6.00 to 7.00. In addition, the negative logarithm of the IC50 (pIC50) in data set [2] is ≥ 7.00.

`CC(C)c1cc(-c2onc(C(=O)NCCCCCCCC(=O)NO)c2-c2ccc(CN3CCOCC3)cc2)c(O)cc1O` [Compound 29, 5-(2,4-Dihydroxy-5-isopropylphenyl)-N-(8-(hydroxyamino)-8-oxooctyl)-4-(4-(morpholinomethyl)phenyl)isoxazole-3-carboxamide] showed a melting point of 117 to 119 °C. In data set [1], this molecule had a pIC50 of 6.00 to 7.00. Also, the pIC50 in data set [2] is ≥ 7.00.

`CCNC(=O)c1noc(-c2cc(C(C)C)c(O)cc2O)c1-c1ccc(CN(C)CCCCCC(=O)NO)cc1` [Compound 22, 5-(2,4-Dihydroxy-5-isopropylphenyl)-N-ethyl-4-(4-(((6-(hydroxyamino)-6-oxohexyl)(methyl)amino)methyl)phenyl)isoxazole-3-carboxamide] had a melting point of 113 to 115 °C. In data set [1], this molecule had a pIC50 of 5.00 to 6.00. In addition, in data set [2], the pIC50 was ≥ 7.00.
